Laboratory results from US20060159676A1, “Methods for modulating angiogenesis, lymphangiogenesis, and apoptosis with apelin compositions” (priority 2005, published 2006).

Legend:
[1] = system: apelin expression; test: Apelin expression in rat cardiac myocytes under cobalt chloride (hypoxia mimic), PCR; format: cell-based
Protocol: Because HIF-1α consensus sites are present in the apelin regulatory region, experiments were conducted to determine whether apelin expression is hypoxia responsive and regulated by HIF-1α. Upregulation of apelin expression under hypoxic conditions would be consistent with a role for apelin in promotion of tumor angiogenesis. Preliminary experiments were carried out using primary rat cardiomyocyte cells in culture and treatment with cobalt chloride. This procedure is accepted as an equivalent to culturing cells under hypoxic conditions because HIF-1α is a metal responsive transcription protein (Ladoux and Frelin, 1994; Piret et al., 2002; Maxwell and Salnikow, 2004). Fetal rat cardiac myocytes were plated and cultured in DMEM (Invitrogen, Carlsbad, Calif.) supplemented with 10% fetal calf serum and penicillin/streptomyocin at 37° C. After four days of culture, medium was removed, and cells were treated with fresh media containing 150 μM Cobalt Chloride (Piret et al., 2002). […] After 4 hours of culture, cells were harvested, and total RNA was extracted using the Trizol procedure according to the manufacturers recommendations (Invitrogen, Carlsbad, Calif.).
Following PCR, amplification products were fractionated on an agarose gel and visualized using ethidium bromide staining under ultraviolet light (FIG. 12). […]

[2] = system: BAE/APJ#2 cells; settings: 10 ng/ml in bottom chamber, 16 hours
Protocol: Bovine aortic endothelial cells (BAE) were cultured in DMEM supplemented with 10% fetal bovine serum (FBS) and penicillin/streptomycin. For generation of stable cell lines expressing APJ, the mouse APJ coding region was cloned into the pcDNA 3.1 vector downstream of the CMV promoter, in frame with a myc epitope at the C-terminal end of the protein, and upstream of the neomycin gene. Bovine aortic endothelial (BAE) cells were transfected with this construction using the Superfect transfection kit (Qiagen) and selected for resistance to G418 (600 μg/ml). Colonies were isolated and screened using RT-PCR for expression of mouse APJ and also by immunocytochemistry for expression of the myc epitope.
Cell migration assays were performed using Transwell cell culture migration chambers (Becton Dickinson) with 8 micron pore size. BAE/APJ#2 cells were plated in serum free conditions in 100 μl at a concentration of 1×10^5 ml in the upper chamber of the migration chamber. Following cell attachment to the membrane, 10 ng/ml of growth factor was added to the bottom chamber, in a total volume of 0.5 ml. […] Cells attached to the membrane in the lower chamber were stained with DAPI, and 3 random fields were counted for each experimental condition.

[3] = system: mouse endothelial cells (bEnd3); test: bEnd3 endothelial cell proliferation (BrdU incorporation); format: cell-based
Protocol: Similar cellular proliferation assays were performed using mouse endothelial cells (bEnd3) that constitutively express APJ. […] SU1498 was included in proliferation cultures at a 25 μM concentration, and results were assayed using BrdU incorporation.
Proliferation inhibition experiments with the bEnd3 cells also were carried out using FGF (50 ng/ml) or the FGF pathway inhibitor SU5402 (FIG. 19). SU5402 was included in proliferation cultures at a 20 μM concentration, and results were assayed using BrdU incorporation.

[4] = system: BAE/APJ#2 cells (bovine aortic endothelial cells expressing mouse APJ); test: BAE/APJ#2 endothelial cell proliferation (BrdU incorporation); format: cell-based; settings: SU1498 10 ng/ml
Protocol: SU1498 was included in proliferation cultures at a concentration of 10 ng/ml and results were assayed using BrdU incorporation. After growth factor incubation, BrdU was added to each well at a final concentration of 10 μM for 2 hours, cells were washed, and fixed for BrdU immunocytochemistry.
Cells were fixed in 100% ice cold methanol at 4° C. for 2 hours to overnight. Prior to staining, cells were air dried and rehydrated for 3 minutes with PBS buffer. DNA was denatured at 37° C. with 2 M HCl, and neutralized with 2 washes for 5 minutes in 0.1 M borate buffer (pH 8.5). […] FITC-labeled anti-BrdU antibody (5 μg/ml) in block was added for 1 hour at room temperature. Cells were counterstained with propidium iodide following several washes in PBS buffer. For each experiment, 4 random fields were photographed for determination of percentage BrdU labeling.

[5] = system: lymphatic endothelial cells; test: In vivo lymphatic cell number assay, quail CAM (Prox1 staining); settings: collagen disk with 50 ng apelin or 100 ng VEGF-C on CAM of 7 day quail embryos, 18 hours
Protocol: All experiments were carried out using chorioallantoic membranes (CAMs) of quail embryos. Quail embryos used for the lymphatic experiments were 7 days old. Collagen purified from rat tails (Bernanke and Markwald, 1982) was polymerized in 2 mm disks at a final concentration of approximately 1.6 mg/ml in standard phosphate buffered saline (PBS). The total volume of the collagen disk was approximately 10 μl. For experimental treatments, the collagen disks were supplemented with either 50 ng of apelin peptide or 100 ng of VEGF-C protein prior to polymerization at 37° C. for 30 minutes. The VEGF-C was a positive control for these experiments. (Recombinant Human VEGF-C (Cys156Ser), R&D Systems, cat # 752-vc). Apelin peptide was synthesized by Sigma-Genosys (>90% purity). […]
(§1) The samples were incubated with primary antibody (Prox1, Research Diagnostics, cat # RDI-102PA30, diluted to 2 μg/ml final concentration) for 4 hours at room temperature or overnight at 4° C. […] Both the lymphatic cell number as well as the number of lymphatic branches were determined.
Assays for lymphatic cell number were carried out in areas of the CAM that were close to the location of the collagen disk as described above. Since Prox1 specifically stains lymphatic endothelial cell nuclei, the number of cells in the lymphatic branches was counted directly. […]

[6] = system: lymphatic vessels; test: In vivo lymphatic vessel branching assay, quail CAM; settings: collagen disk with 50 ng apelin or 100 ng VEGF-C on CAM of 7 day quail embryos, 18 hours
Protocol: All experiments were carried out using chorioallantoic membranes (CAMs) of quail embryos. Quail embryos used for the lymphatic experiments were 7 days old. Collagen purified from rat tails (Bernanke and Markwald, 1982) was polymerized in 2 mm disks at a final concentration of approximately 1.6 mg/ml in standard phosphate buffered saline (PBS). The total volume of the collagen disk was approximately 10 μl. For experimental treatments, the collagen disks were supplemented with either 50 ng of apelin peptide or 100 ng of VEGF-C protein prior to polymerization at 37° C. for 30 minutes. The VEGF-C was a positive control for these experiments. (Recombinant Human VEGF-C (Cys156Ser), R&D Systems, cat # 752-vc). Apelin peptide was synthesized by Sigma-Genosys (>90% purity).
For lymphangiogenesis assays, the CAMs of 7 day quail embryos were exposed, in ovo, and the collagen disks were placed directly onto the surface of the CAM. […]
as §1
Both blood vessels and lymphatic vessels were stained with the QH-1 antibody. […] The number of lymphatic vessels branching away from blood vessels (towards the collagen disk) were counted. […]

`[Cl][Co][Cl]` [Cobalt Chloride] was tested, and the apelin expression ([1]; 150 μM Cobalt Chloride, 4 hours, fetal rat cardiac myocytes) was “significantly increased” and the apelin expression ([1]; Cobalt chloride 30 μg/ml, rat cardiac myocytes) was “induced”.

With VEGF the “endothelial cell migration (cells per field)” value [2] was “increase in migration” and the “cellular proliferation of endothelial cells” value ([3]; apelin 10 ng/ml or VEGF 50 ng/ml, 0.1 ng/ml to 1 μg/ml (FIG. 17)) was “proliferate upon the addition of VEGF or apelin”.

With `CC(C)c1cc(/C=C(\C#N)C(=O)NCCCc2ccccc2)cc(C(C)C)c1O` [SU1498] the “effect on VEGF-mediated proliferation” value ([4]; VEGF 10 ng/ml) was “partially inhibits VEGF-mediated proliferation”, the “effect on apelin-mediated proliferation” value ([4]; apelin 10 ng/ml) was “no significant effect on apelin-mediated proliferation” and the “effect on VEGF-mediated proliferation” value ([3]; SU1498 25 μM, VEGF 50 ng/ml) was “partially inhibits VEGF-mediated proliferation”. For the same molecule, the “effect on apelin-mediated proliferation” value ([3]; SU1498 25 μM, apelin 10 ng/ml) was “no significant effect on apelin-mediated proliferation”.

For `Cc1c[nH]c(/C=C2\C(=O)Nc3ccccc32)c1CCC(=O)O` [SU5402], the “effect on FGF-mediated proliferation” value ([3]; SU5402 20 μM, FGF 50 ng/ml) was “partially inhibited the proliferative effect of FGF” and the “effect on apelin-stimulated cellular proliferation” value ([3]; SU5402 20 μM, apelin 10 ng/ml) was “did not have a significant effect on apelin-stimulated cellular proliferation”.

B1: VEGF-C: Recombinant Human VEGF-C (Cys156Ser), R&D Systems; positive control for lymphangiogenesis (protein, UniProt P49767 112-227, looked up, variant C156S)
Vascular endothelial growth …: AHYNTEILKSIDNEWRKTQCMPREVCIDVGKEFGVATNTFFKPPSVSVYRCGGCCNSEGLQCMNTSTSYLSKTLFEITVPLSQGPKPVTISFANHTSCRCMSKLDVYRQVHSIIRR
With B1 the “lymphatic cell number (Prox1 positive nuclei)” value [5] was “mitogenic factor for lymphatic endothelial cells” and the “number of lymphatic vessels branching away from blood vessels” value [6] was “positive regulator of lymphatic branching angiogenesis”.
